Measured values from PMC3388080 (PLoS ONE, 2012).

How the values were obtained:
Experiment in all cases: CEREP radioligand binding
5-HT1A (h) = target: T1, 5-HT1A (h) (Homo sapiens, UniProt P08908); conditions: % of control specific binding
T1 construct: purchased CEREP
Experimental: (§1) SB-334867 was evaluated in a selectivity screen performed at CEREP (Paris, France). The screen consisted of binding assays on a panel of 79 target receptors. The specific binding (SB) of a radioligand to each target receptor was defined as the difference between the total binding and the nonspecific binding determined in the presence of a cold competitor in excess. […] Details on the CEREP screen are available from www.cerep.fr.

ETB (h) = target: T2, ETB (h) (Homo sapiens, UniProt P24530); conditions: % of control specific binding
T2 construct: purchased CEREP
Experimental: as §1

NE transporter (h) = target: T3, NE transporter (h) (Homo sapiens, UniProt P23975); conditions: % of control specific binding
T3 construct: purchased CEREP
Experimental: as §1

H1 (h) = target: T4, H1 (h) (Homo sapiens, UniProt P35367); conditions: % of control specific binding
T4 construct: purchased CEREP
Experimental: as §1

B2 (h) = target: T5, B2 (h) (Homo sapiens, UniProt P30411); conditions: % of control specific binding
T5 construct: purchased CEREP
Experimental: as §1

Y2 (h) = target: T6, Y2 (h) (Homo sapiens, UniProt P49146); conditions: % of control specific binding
T6 construct: purchased CEREP
Experimental: as §1

MT2 (h) (agonist site) = target: T7, MT2 (h) (agonist site) (Homo sapiens, UniProt P49286); conditions: % of control specific binding
T7 construct: purchased CEREP
Experimental: as §1

D3 (h) = target: T8, D3 (h) (Homo sapiens, UniProt P35462); conditions: % of control specific binding
T8 construct: purchased CEREP
Experimental: as §1

5-HT2A (h) = target: T9, 5-HT2A (h) (Homo sapiens, UniProt P28223); conditions: % of control specific binding
T9 construct: purchased CEREP
Experimental: as §1

BZD (peripheral) = target: T10, BZD (peripheral) (Rattus norvegicus, UniProt P16257); conditions: % of control specific binding
T10 construct: purchased CEREP
T10 sequence (P16257 whole entry): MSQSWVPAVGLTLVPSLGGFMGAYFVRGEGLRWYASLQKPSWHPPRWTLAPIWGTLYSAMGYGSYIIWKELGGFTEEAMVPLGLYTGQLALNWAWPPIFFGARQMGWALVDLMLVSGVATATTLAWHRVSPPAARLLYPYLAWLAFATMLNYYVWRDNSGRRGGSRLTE
Experimental: as §1

P2X = conditions: % of control specific binding
Experimental: as §1

ML2 (MT3) = tested on: ML2 (MT3)
Experimental: as §1

NK3 (h) = target: T11, NK3 (h) (Homo sapiens, UniProt P29371); conditions: % of control specific binding
T11 construct: purchased CEREP
Experimental: as §1

M5 (h) = target: T12, M5 (h) (Homo sapiens, UniProt P08912); conditions: % of control specific binding
T12 construct: purchased CEREP
T12 sequence (P08912 whole entry): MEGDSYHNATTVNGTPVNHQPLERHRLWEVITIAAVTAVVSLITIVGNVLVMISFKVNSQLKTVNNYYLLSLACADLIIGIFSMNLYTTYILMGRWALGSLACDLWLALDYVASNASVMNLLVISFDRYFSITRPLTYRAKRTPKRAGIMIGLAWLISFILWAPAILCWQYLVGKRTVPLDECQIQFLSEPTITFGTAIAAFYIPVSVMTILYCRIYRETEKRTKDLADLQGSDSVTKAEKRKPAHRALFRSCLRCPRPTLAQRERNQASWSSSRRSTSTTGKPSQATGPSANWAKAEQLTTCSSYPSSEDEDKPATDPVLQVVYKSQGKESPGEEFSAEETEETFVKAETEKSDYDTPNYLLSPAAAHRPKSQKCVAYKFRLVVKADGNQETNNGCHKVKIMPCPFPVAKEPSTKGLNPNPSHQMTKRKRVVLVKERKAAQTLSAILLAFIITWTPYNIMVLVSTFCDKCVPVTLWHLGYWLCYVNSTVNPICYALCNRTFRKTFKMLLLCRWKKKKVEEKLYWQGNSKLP
Experimental: as §1

CB1 (h) = target: T13, CB1 (h) (Homo sapiens, UniProt P21554); conditions: % of control specific binding
T13 construct: purchased CEREP
Experimental: as §1

delta 2 (h) (DOP) = target: T14, delta 2 (h) (DOP) (Homo sapiens, UniProt P41143); conditions: % of control specific binding
T14 construct: purchased CEREP
Experimental: as §1

BZD (central) = conditions: % of control specific binding
Experimental: as §1

DA transporter (h) = target: T15, DA transporter (h) (Homo sapiens, UniProt Q01959); conditions: % of control specific binding
T15 construct: purchased CEREP
T15 sequence (Q01959 whole entry): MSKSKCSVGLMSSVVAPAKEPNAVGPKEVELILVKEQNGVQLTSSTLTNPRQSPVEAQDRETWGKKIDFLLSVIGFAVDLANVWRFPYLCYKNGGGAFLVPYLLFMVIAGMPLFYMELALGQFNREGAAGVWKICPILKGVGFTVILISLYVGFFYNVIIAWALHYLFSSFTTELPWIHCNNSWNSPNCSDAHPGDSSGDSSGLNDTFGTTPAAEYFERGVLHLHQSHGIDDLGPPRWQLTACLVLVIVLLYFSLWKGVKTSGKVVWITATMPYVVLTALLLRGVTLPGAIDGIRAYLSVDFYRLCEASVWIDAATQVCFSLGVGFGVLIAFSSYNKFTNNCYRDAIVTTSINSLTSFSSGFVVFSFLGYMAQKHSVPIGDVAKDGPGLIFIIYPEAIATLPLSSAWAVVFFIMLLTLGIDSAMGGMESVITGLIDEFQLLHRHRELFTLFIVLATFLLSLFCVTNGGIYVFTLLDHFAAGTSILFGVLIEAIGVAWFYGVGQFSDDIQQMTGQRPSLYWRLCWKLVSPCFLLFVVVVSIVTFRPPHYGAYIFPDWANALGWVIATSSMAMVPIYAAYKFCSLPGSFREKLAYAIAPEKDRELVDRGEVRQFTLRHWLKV
Experimental: as §1

H2 (h) = target: T16, H2 (h) (Homo sapiens, UniProt P25021); conditions: % of control specific binding
T16 construct: purchased CEREP
Experimental: as §1

5-HT transporter (h) = target: T17, 5-HT transporter (h) (Homo sapiens, UniProt P31645); conditions: % of control specific binding
T17 construct: purchased CEREP
Experimental: as §1

ETA (h) = target: T18, ETA (h) (Homo sapiens, UniProt P25101); conditions: % of control specific binding
T18 construct: purchased CEREP
T18 sequence (P25101 21-427): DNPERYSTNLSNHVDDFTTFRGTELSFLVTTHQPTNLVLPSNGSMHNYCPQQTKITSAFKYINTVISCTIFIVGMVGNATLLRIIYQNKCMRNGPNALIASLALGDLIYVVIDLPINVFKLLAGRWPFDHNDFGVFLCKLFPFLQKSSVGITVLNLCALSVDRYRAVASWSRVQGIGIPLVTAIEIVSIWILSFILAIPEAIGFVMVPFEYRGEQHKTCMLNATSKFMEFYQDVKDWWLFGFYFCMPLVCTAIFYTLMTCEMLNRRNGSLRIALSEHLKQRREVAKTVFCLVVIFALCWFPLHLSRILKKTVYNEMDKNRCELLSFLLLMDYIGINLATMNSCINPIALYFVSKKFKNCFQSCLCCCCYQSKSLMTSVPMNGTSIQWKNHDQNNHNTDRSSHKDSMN
Experimental: as §1

beta 1 (h) = target: T19, beta 1 (h) (Homo sapiens, UniProt P08588); conditions: % of control specific binding
T19 construct: purchased CEREP
Experimental: as §1

5-HT5A (h) = target: T20, 5-HT5A (h) (Homo sapiens, UniProt P47898); conditions: % of control specific binding
T20 construct: purchased CEREP
Experimental: as §1

D4.4 (h) = target: T21, D4.4 (h) (Homo sapiens, UniProt P21917); conditions: % of control specific binding
T21 construct: purchased CEREP
Experimental: as §1

A3 (h) = target: T22, A3 (h) (Homo sapiens, UniProt P0DMS8)
T22 construct: purchased CEREP
T22 sequence (P0DMS8 whole entry): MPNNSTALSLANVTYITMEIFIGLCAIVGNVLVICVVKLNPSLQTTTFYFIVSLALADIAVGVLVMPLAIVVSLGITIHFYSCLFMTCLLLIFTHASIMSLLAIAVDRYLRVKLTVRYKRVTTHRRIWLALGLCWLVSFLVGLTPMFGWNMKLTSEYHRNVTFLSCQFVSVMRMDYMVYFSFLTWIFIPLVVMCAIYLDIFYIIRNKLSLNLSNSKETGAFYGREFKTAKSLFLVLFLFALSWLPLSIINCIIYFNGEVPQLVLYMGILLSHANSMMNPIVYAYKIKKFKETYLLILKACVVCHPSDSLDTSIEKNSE
Experimental: as §1

K+V channel = conditions: % of control specific binding
Experimental: as §1

M3 (h) = target: T23, M3 (h) (Homo sapiens, UniProt P20309); conditions: % of control specific binding
T23 construct: purchased CEREP
T23 sequence (P20309 whole entry): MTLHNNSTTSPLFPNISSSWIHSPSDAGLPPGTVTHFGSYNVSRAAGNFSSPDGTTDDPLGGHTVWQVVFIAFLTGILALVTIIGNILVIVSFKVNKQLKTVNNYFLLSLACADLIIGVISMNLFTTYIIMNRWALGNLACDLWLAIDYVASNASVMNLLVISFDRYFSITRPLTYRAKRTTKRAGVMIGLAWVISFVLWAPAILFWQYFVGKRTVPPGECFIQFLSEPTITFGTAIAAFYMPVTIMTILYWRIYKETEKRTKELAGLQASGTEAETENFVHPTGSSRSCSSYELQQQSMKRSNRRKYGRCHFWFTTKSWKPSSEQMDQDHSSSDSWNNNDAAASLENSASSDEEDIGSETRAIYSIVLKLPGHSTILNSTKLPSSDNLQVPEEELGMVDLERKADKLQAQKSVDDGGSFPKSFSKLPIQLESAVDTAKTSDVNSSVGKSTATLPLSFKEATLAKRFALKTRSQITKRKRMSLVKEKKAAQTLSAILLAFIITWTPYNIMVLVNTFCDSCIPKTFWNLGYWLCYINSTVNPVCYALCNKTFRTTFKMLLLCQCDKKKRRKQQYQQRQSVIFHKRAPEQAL
Experimental: as §1

sigma (non-selective) = conditions: % of control specific binding
Experimental: as §1

5-HT7 (h) = target: T24, 5-HT7 (h) (Homo sapiens, UniProt P34969); conditions: % of control specific binding
T24 construct: purchased CEREP
Experimental: as §1

NT1 (h) (NTS1) = target: T25, NT1 (h) (NTS1) (Homo sapiens, UniProt P30989); conditions: % of control specific binding
T25 construct: purchased CEREP
Experimental: as §1

5-HT3 (h) = target: T26, 5-HT3 (h) (Homo sapiens, UniProt P46098); conditions: % of control specific binding
T26 construct: purchased CEREP
T26 sequence (P46098 24-478): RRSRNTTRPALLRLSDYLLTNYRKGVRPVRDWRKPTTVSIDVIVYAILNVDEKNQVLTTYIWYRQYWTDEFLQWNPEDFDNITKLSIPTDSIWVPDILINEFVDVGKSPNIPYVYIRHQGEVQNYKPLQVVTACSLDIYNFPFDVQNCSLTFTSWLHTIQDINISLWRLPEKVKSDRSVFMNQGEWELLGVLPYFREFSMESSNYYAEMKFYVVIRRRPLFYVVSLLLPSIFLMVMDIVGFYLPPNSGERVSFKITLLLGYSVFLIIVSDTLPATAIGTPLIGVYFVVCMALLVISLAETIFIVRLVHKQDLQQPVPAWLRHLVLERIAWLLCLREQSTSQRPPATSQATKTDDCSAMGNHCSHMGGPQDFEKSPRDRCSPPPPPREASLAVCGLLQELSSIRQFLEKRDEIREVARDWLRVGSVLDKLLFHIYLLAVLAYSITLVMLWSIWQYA
Experimental: as §1

NK2 (h) = target: T27, NK2 (h) (Homo sapiens, UniProt P21452); conditions: % of control specific binding
T27 construct: purchased CEREP
T27 sequence (P21452 whole entry): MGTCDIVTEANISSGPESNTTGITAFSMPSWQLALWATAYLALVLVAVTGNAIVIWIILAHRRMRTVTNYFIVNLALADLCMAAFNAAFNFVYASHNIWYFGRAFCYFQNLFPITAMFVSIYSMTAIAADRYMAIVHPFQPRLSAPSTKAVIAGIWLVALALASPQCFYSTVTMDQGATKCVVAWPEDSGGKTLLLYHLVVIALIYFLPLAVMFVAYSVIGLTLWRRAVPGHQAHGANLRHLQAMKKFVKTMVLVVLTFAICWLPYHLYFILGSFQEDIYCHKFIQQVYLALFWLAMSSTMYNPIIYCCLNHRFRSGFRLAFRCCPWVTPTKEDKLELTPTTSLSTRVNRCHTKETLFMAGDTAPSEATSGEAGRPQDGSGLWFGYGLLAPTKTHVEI
Experimental: as §1

BB (non-selective) = conditions: % of control specific binding
Experimental: as §1

[1] = target: T28, mu (h) (MOP) (agonist site) (Homo sapiens, UniProt P35372); conditions: % of control specific binding
T28 construct: purchased CEREP
Experimental: as §1

D5 (h) = target: T29, D5 (h) (Homo sapiens, UniProt P21918); conditions: % of control specific binding
T29 construct: purchased CEREP
Experimental: as §1

CCKB (h) (CCK2) = target: T30, CCKB (h) (CCK2) (Homo sapiens, UniProt P32239); conditions: % of control specific binding
T30 construct: purchased CEREP
T30 sequence (P32239 whole entry): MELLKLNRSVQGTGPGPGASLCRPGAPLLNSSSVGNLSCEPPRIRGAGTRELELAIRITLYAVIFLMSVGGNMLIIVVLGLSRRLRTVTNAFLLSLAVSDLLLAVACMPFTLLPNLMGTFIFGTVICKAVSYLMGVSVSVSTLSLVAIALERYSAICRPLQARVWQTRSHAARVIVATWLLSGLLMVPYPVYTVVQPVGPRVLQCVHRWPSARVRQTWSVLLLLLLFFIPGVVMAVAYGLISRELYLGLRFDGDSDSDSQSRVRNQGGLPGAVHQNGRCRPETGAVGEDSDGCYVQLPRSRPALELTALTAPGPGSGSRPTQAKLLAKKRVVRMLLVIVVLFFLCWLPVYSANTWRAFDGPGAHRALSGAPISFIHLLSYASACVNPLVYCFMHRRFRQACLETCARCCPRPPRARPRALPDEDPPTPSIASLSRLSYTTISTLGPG
Experimental: as §1

TXA2/PGH2 (h) (TP) = target: T31, TXA2/PGH2 (h) (TP) (Homo sapiens, UniProt P21731); conditions: % of control specific binding
T31 construct: purchased CEREP
Experimental: as §1

alpha 2 (non-selective) = conditions: % of control specific binding
Experimental: as §1

M1 (h) = target: T32, M1 (h) (Homo sapiens, UniProt P11229); conditions: % of control specific binding
T32 construct: purchased CEREP
Experimental: as §1

AT2 (h) = target: T33, AT2 (h) (Homo sapiens, UniProt P50052); conditions: % of control specific binding
T33 construct: purchased CEREP
T33 sequence (P50052 whole entry): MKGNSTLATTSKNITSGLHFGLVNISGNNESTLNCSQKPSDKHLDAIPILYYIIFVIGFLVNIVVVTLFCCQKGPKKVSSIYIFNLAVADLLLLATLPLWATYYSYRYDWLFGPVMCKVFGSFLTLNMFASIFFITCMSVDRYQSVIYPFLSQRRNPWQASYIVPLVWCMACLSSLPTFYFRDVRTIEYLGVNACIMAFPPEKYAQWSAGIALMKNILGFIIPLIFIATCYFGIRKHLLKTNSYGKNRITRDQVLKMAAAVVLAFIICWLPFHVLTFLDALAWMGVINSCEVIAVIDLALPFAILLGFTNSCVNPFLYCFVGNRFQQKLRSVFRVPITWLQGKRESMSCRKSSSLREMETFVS
Experimental: as §1

5-HT6 (h) = target: T34, 5-HT6 (h) (Homo sapiens, UniProt P50406); conditions: % of control specific binding
T34 construct: purchased CEREP
T34 sequence (P50406 whole entry): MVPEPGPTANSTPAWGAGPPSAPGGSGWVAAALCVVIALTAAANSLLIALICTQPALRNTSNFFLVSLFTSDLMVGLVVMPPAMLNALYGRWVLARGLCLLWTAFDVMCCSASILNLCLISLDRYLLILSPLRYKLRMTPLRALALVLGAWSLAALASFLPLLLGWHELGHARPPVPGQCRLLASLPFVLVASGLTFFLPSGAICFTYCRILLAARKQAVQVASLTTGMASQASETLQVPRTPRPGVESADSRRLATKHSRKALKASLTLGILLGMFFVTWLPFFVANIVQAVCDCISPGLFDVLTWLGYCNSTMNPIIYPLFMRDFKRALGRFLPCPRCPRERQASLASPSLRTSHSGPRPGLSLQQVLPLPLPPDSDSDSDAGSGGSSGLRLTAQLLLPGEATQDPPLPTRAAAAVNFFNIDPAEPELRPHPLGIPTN
Experimental: as §1

ORL1 (h) (NOP) = target: T35, ORL1 (h) (NOP) (Homo sapiens, UniProt P41146); conditions: % of control specific binding
T35 construct: purchased CEREP
Experimental: as §1

## Cc1nc2ccc(NC(=O)Nc3ccnc4cccnc34)cc2o1.Cl [SB-334867, 1-(2-methylbenzoxazol-6-yl)-3-[1], [5]naphthyridin-4-yl-urea hydrochloride]
5-HT1A (h)
  % Control (10 µM) Mean SB: 106.6%
ETB (h)
  % Control (10 µM) Mean SB: 96.5%
NE transporter (h)
  % Control (10 µM) Mean SB: 49.4%
H1 (h)
  % Control (10 µM) Mean SB: 100.3%
B2 (h)
  % Control (10 µM) Mean SB: 97%
Y2 (h)
  % Control (10 µM) Mean SB: 113%
MT2 (h) (agonist site)
  % Control (10 µM) Mean SB: 98.6%
D3 (h)
  % Control (10 µM) Mean SB: 97.1%
5-HT2A (h)
  % Control (10 µM) Mean SB: 89.5%
BZD (peripheral)
  % Control (10 µM) Mean SB: 109.3%
P2X
  % Control (10 µM) Mean SB: 94.9%
ML2 (MT3); 10 µM, MT3 (melatonin)
  displacement of specific binding: 102%
ML2 (MT3); % of control specific binding
  % Control (10 µM) Mean SB: -1.6%
NK3 (h)
  % Control (10 µM) Mean SB: 86.3%
M5 (h)
  % Control (10 µM) Mean SB: 103.3%
CB1 (h)
  % Control (10 µM) Mean SB: 104.1%
Delta 2 (h) (DOP)
  % Control (10 µM) Mean SB: 86.1%
BZD (central)
  % Control (10 µM) Mean SB: 89.4%
DA transporter (h)
  % Control (10 µM) Mean SB: 72.4%
H2 (h)
  % Control (10 µM) Mean SB: 86.6%
5-HT transporter (h)
  % Control (10 µM) Mean SB: 110.7%
ETA (h)
  % Control (10 µM) Mean SB: 97.3%
Beta 1 (h)
  % Control (10 µM) Mean SB: 85.7%
5-HT5A (h)
  % Control (10 µM) Mean SB: 84.1%
D4.4 (h)
  % Control (10 µM) Mean SB: 95.9%
A3 (h); 10 µM, A3
  displacement of specific binding: 63%
A3 (h); % of control specific binding
  % Control (10 µM) Mean SB: 37.5%
K+V channel
  % Control (10 µM) Mean SB: 108.1%
M3 (h)
  % Control (10 µM) Mean SB: 73.1%
Sigma (non-selective)
  % Control (10 µM) Mean SB: 98.6%
5-HT7 (h)
  % Control (10 µM) Mean SB: 99.9%
NT1 (h) (NTS1)
  % Control (10 µM) Mean SB: 106.9%
5-HT3 (h)
  % Control (10 µM) Mean SB: 93.9%
NK2 (h)
  % Control (10 µM) Mean SB: 96%
BB (non-selective)
  % Control (10 µM) Mean SB: 109.9%
[1]
  % Control (10 µM) Mean SB: 86.3%
D5 (h)
  % Control (10 µM) Mean SB: 118.6%
CCKB (h) (CCK2)
  % Control (10 µM) Mean SB: 135.1%
TXA2/PGH2 (h) (TP)
  % Control (10 µM) Mean SB: 98.8%
Alpha 2 (non-selective)
  % Control (10 µM) Mean SB: 96.1%
M1 (h)
  % Control (10 µM) Mean SB: 103.6%
AT2 (h)
  % Control (10 µM) Mean SB: 114.4%
5-HT6 (h)
  % Control (10 µM) Mean SB: 102.9%
ORL1 (h) (NOP)
  % Control (10 µM) Mean SB: 102.9%
